For six compounds, IC50 results are on record in ChEMBL document CHEMBL6074701, “Pyridazine Compounds as NLRP3 Inhibitors for Treating Parkinson's Disease or Frontotemporal Dementia” (ACS Med Chem Lett, 2024).

pIC50: −log10 of the molar value. Where only a bound is given, the exact number is not on record here.

The assay in a line: Inhibition of NLRP3 inflammasome activation in human THP-1 cells assessed as reduction in LPS induced IL-1beta level preincubated with LPS for 3 hrs followed by compound addition and measured after 2 hrs in presence of nigericin by HTRF analysis. The format is cell-based. Background: Time-resolved FRET reads energy transfer from a long-lived donor to a nearby acceptor.
As to `CCN1CC[C@H]2CCN(c3ccc(-c4ccc(C(F)(F)F)cc4O)nn3)[C@H]2C1`, the negative-log IC50 (pIC50) – broadly, the IC50 on a negative log10 scale, so that one unit is a factor of ten – is > 9.52.
Under `CN1CC[C@H]2CCN(c3cc(C(F)F)c(-c4ccc(Cl)cc4O)nn3)[C@H]2C1` stands > 9.52; under `CCN1CC[C@H]2CCN(c3cc(C)c(-c4ccc(C)cc4O)nn3)[C@H]2C1`, > 9.52; under `CCN1CC[C@@H]2CCN(c3cc(C)c(-c4ccc(C)cc4O)nn3)[C@@H]2C1`, > 9.52.
Turning to `CCc1cc(C)cc(O)c1-c1ccc(N2CC[C@@H]3CCN(C)C[C@@H]32)nn1`, the negative logarithm of the IC50 (pIC50) is > 9.52.
Regarding `Cc1cc(N2CCO[C@H]3CCN(C)C[C@H]32)nnc1-c1ccc(C(F)(F)F)cc1O`, the pIC50 is > 9.52.
